“Also recorded” adds a separate entry of the source.
Key:
FXR = settings: 10μM, 24 hours
CelDAF-12 = biological target: T1, CelDAF-12 (Caenorhabditis elegans, UniProt G5EFF5); assay: cell-based; format: cell-based
T1 construct: fusing the LBD of the receptor of interest (Hco, Cel, Dim or BmaDAF12) and the DBD of GAL4; expressed in transfected cells; host or cells: NIH3T3
T1 sequence (G5EFF5 516-753 limits assumed): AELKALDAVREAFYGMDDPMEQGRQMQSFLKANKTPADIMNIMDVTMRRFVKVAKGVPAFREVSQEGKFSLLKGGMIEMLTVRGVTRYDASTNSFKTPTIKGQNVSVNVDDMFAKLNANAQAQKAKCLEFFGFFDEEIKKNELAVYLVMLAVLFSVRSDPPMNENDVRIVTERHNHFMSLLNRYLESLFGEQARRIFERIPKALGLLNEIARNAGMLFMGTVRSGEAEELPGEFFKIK

DimDAF-12 = DimDAF-12 (Dirofilaria immitis, UniProt A0A7D0JJL8); assay: cell-based; format: cell-based
HcoDAF-12 = biological target: T2, HcoDAF-12 (Haemonchus contortus, UniProt A0A7I4Z123); assay: Cell-based transactivation assay, Gal4-HcoDAF-12_LBD luciferase reporter in NIH3T3 cells
T2 sequence (A0A7I4Z123 444-684): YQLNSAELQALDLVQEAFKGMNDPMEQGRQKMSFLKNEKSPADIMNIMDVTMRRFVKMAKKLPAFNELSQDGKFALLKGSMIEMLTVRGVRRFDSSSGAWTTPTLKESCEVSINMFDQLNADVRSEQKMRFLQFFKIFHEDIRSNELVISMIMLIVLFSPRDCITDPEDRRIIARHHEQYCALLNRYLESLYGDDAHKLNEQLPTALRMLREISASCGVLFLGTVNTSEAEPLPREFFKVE

D. immitis iL3 = settings: 50 µM
[1] = concentrations well above the relevant physiological values
[2] = NIH3T3, 24 h, technical triplicates, Fig 2, read-out: EC50 (logEC50 SE) (converted)

DimDAF-12, sequence (A0A7D0JJL8 587-828 limits assumed): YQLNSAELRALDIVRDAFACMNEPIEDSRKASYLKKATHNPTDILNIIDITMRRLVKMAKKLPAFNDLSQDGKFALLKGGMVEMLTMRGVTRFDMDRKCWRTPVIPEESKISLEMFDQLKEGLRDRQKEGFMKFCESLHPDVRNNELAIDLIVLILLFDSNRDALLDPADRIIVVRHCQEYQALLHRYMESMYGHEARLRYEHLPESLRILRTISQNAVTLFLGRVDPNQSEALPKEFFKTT

## 3β-hydroxy-5-cholestenoic acid
FXR
  Activation of FXR: do not activate
CelDAF-12; [1]
  Activation of CelDAF-12 in dose-response: failed to activate
DimDAF-12
  Activation of DimDAF-12 by spiked charcoal-stripped mouse serum: failed to activate; also recorded: did not activate
HcoDAF-12; [1]
  Activation of HcoDAF-12 in dose-response: failed to activate

## CC(CCCC(C)C1CCC2C3=CCC4CC(=O)CCC4(C)C3CCC21C)C(=O)O [Δ7-dafachronic acid, (25S)-Δ7-dafachronic acid]
CelDAF-12; [2]
  EC50: 11 nM
DimDAF-12
  EC50: 1 nM
HcoDAF-12; [2]
  EC50: 12 nM

## C[C@H](CCC[C@@H](C)[C@H]1CC[C@H]2[C@@H]3CCC4=CC(=O)CC[C@]4(C)[C@H]3CC[C@]12C)C(=O)O [(25R)-Δ4-DA]
DimDAF-12
  Activation of DimDAF-12 by spiked charcoal-stripped mouse serum: partially complement; also recorded: partially restores; also recorded: partial restoration

## CC(=O)N1CCN(c2ccc(OCC3COC(Cn4ccnc4)(c4ccc(Cl)cc4Cl)O3)cc2)CC1 (stereo not drawn) [ketoconazole]
D. immitis iL3
  Survival of iL3: all iL3 died

Source: article PMC10313052, “Filarial DAF-12 sense the host serum to resume iL3 development during infection” (PLOS Pathogens, 2023)
